According to patent US12065436B2, “Cardiac sarcomere inhibitors” (Cytokinetics, Inc., priority 2018, dated 2024):
pIC50: −log10 of the molar value.

Target: bovine cardiac myofibrils (full-length cardiac myosin ATPase in the native sarcomere) (Bos taurus (Bovine), UniProt Q9BE39)
Experiment: Skinned bovine cardiac myofibril ATPase assay (PK/LDH-coupled)
Type: biochemical
Conditions: Ca2+ activating to 75% of maximal rate; for CDMF75 IC15: concentration giving 15% inhibition; for pIC50: read-out: CDMF75 IC50
Outline: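 Triton-skinned bovine left-ventricle myofibrils (1 mg/mL) in PM 12 buffer (12 mM PIPES, 2 mM MgCl2, pH 6.8) with 50 μM ATP, 0.6 mM EGTA and CaCl2 set for 50% or 75% activation. Steady-state ATPase inhibition followed by PK/LDH-coupled NADH oxidation at 340 nm.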

bovine cardiac myofibrils (full-length cardiac myosin ATPase in the native sarcomere), sequence (Q9BE39 whole entry): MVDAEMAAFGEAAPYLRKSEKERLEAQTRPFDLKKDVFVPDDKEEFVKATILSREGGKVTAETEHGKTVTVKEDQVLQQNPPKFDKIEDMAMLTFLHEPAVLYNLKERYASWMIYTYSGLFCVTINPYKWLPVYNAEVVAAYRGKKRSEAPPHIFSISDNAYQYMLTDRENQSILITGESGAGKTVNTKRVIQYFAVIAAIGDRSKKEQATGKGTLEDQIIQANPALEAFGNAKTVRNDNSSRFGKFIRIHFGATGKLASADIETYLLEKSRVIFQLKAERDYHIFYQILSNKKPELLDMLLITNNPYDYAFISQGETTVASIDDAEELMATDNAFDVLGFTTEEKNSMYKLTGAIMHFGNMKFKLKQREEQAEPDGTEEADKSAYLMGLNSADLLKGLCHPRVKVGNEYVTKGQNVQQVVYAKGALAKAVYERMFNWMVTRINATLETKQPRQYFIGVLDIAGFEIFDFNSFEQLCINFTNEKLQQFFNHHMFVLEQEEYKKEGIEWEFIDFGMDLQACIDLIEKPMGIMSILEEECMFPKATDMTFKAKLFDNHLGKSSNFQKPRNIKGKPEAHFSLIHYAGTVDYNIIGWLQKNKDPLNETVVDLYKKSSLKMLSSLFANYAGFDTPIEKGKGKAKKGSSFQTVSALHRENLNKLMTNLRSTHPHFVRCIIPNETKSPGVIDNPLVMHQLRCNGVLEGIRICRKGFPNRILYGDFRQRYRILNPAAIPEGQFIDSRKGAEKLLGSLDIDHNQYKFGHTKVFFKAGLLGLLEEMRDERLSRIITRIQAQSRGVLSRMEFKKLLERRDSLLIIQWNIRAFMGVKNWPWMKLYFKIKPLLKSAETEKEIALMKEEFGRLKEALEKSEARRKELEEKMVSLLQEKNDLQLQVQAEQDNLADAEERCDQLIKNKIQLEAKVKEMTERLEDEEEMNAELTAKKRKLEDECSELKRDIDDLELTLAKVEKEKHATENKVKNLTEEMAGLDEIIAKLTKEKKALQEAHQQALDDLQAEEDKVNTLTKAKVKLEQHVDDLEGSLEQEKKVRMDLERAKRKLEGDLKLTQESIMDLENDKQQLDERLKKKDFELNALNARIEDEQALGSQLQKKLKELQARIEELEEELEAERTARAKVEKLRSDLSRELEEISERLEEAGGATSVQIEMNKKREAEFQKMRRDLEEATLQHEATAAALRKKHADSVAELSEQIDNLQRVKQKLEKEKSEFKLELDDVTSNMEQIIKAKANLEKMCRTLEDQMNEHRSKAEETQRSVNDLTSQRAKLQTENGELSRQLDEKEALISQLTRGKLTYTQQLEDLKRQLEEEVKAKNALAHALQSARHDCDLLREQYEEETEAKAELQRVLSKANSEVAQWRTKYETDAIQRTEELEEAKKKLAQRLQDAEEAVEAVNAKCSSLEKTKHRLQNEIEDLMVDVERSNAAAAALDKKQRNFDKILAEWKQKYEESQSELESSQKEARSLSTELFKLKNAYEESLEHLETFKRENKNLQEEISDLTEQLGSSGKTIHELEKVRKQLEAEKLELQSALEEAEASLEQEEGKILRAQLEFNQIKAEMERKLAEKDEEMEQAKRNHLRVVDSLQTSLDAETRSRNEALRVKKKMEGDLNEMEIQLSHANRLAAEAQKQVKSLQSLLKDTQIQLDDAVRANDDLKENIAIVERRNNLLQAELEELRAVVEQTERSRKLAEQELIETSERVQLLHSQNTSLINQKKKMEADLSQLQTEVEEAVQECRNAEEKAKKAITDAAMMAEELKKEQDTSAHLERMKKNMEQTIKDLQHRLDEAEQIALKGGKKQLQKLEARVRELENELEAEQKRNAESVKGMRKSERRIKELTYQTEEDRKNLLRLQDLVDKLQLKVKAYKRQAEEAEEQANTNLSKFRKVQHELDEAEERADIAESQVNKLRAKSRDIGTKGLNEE
bovine cardiac myofibrils (full-length cardiac myosin ATPase in the native sarcomere), sequence (P85100 whole entry partner): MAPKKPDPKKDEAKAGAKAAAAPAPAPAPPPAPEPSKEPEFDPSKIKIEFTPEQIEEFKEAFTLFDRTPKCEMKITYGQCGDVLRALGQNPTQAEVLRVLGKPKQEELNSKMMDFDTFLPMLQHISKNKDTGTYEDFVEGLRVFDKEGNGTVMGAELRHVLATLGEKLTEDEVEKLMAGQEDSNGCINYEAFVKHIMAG
bovine cardiac myofibrils (full-length cardiac myosin ATPase in the native sarcomere), sequence (Q3SZE5 whole entry partner): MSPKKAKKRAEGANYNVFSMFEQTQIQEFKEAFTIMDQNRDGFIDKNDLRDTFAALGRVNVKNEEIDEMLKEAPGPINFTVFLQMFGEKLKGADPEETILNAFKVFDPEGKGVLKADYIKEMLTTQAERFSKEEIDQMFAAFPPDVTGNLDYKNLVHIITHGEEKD

Row | CDMF75 IC15 [µM] | pIC50 | SMILES
1 | 1.9 | 5.17 | COCc1nc(-c2ccc3c(c2)CC[C@H]3NC(=O)c2cnn(C)c2)no1 [Compound 178, (R)-N-(5-(5-(methoxymethyl)-1,2,4-oxadiazol-3-yl)-2,3-dihydro-1H-inden-1-yl)-1-methyl-1H-pyrazole-4-carboxamide]
2 | 1.7 | 5.22 | Cc1nc(-c2ccc3c(c2)OCC3NC(=O)c2cnn(C)c2)no1 (centres unmarked) [Compound 212, 1-methyl-N-(6-(5-methyl-1,2,4-oxadiazol-3-yl)-2,3-dihydrobenzofuran-3-yl)-1H-pyrazole-4-carboxamide]
3 | 1.7 | 5.17 | CCc1nc(-c2ccc3c(c2)CC[C@H]3NC(=O)N2CC[C@@H](O)C2)no1 [Compound 724, (R)-N-((R)-5-(5-ethyl-1,2,4-oxadiazol-3-yl)-2,3-dihydro-1H-inden-1-yl)-3-hydroxypyrrolidine-1-carboxamide]
4 | 0.4 | 5.85 | CCc1nc(-c2ccc3c(c2)CC[C@H]3NC(=O)c2cnn(C)c2C)no1 [Compound 570, (R)-N-(5-(5-ethyl-1,2,4-oxadiazol-3-yl)-2,3-dihydro-1H-inden-1-yl)-1,5-dimethyl-1H-pyrazole-4-carboxamide]
5 | 0.4 | 5.89 | CCc1nc(-c2ccc3c(c2)CC[C@H]3NC(=O)OC2CCC2)no1 [Compound 321, cyclobutyl (R)-(5-(5-ethyl-1,2,4-oxadiazol-3-yl)-2,3-dihydro-1H-inden-1-yl)carbamate]
6 | 0.8 | 5.52 | [2H]C([2H])([2H])C(=O)N[C@@H]1COc2cc(-c3noc(CC)n3)ccc21 [Compound 445, (S)-N-(6-(5-ethyl-1,2,4-oxadiazol-3-yl)-2,3-dihydrobenzofuran-3-yl)acetamide-2,2,2-d3]
7 | 2.1 | 5.11 | COCc1nc(-c2ccc3c(c2)CC[C@H]3NC(=O)c2cn(CCO)nc2C)no1 [Compound 695, (R)-1-(2-hydroxyethyl)-N-(5-(5-(methoxymethyl)-1,2,4-oxadiazol-3-yl)-2,3-dihydro-1H-inden-1-yl)-3-methyl-1H-pyrazole-4-carboxamide]
8 | 1.2 | 5.33 | CC(=O)N[C@@H]1CCc2cc(-c3noc(C4CC4)n3)ccc21 [Compound 419, (R)-N-(5-(5-cyclopropyl-1,2,4-oxadiazol-3-yl)-2,3-dihydro-1H-inden-1-yl)acetamide]
9 | 4.2 | 4.71 | CCc1nc(-c2ccc3c(c2)CC[C@H]3NC(=O)c2cnn(CC(C)(C)O)c2)no1 [Compound 476, (R)-N-(5-(5-ethyl-1,2,4-oxadiazol-3-yl)-2,3-dihydro-1H-inden-1-yl)-1-(2-hydroxy-2-methylpropyl)-1H-pyrazole-4-carboxamide]
10 | 1.4 | 5.30 | Cc1cc(C(=O)NC2CCc3cc(-c4noc(C)n4)ccc32)n(C)n1 (centres unmarked) [Compound 47, 1,3-dimethyl-N-(5-(5-methyl-1,2,4-oxadiazol-3-yl)-2,3-dihydro-1H-inden-1-yl)-1H-pyrazole-5-carboxamide]
11 | 0.4 | 5.72 | O=C(N[C@@H]1COc2cc(-c3noc(C(F)F)n3)ccc21)c1ccnc(CO)c1 [Compound 710, (S)-N-(6-(5-(difluoromethyl)-1,2,4-oxadiazol-3-yl)-2,3-dihydrobenzofuran-3-yl)-2-(hydroxymethyl)isonicotinamide]
12 | 1.5 | 5.23 | Cn1cc(C(=O)N[C@@H]2CCc3cc(-c4noc(C(F)F)n4)ccc32)ccc1=O [Compound 644, (R)-N-(5-(5-(difluoromethyl)-1,2,4-oxadiazol-3-yl)-2,3-dihydro-1H-inden-1-yl)-1-methyl-6-oxo-1,6-dihydropyridine-3-carboxamide]
13 | 4.3 | 4.77 | [2H]C([2H])([2H])c1nc(-c2ccc3c(c2)OC[C@H]3NC(=O)c2nnn(C)n2)no1 [Compound 271, (S)-2-methyl-N-(6-(5-(methyl-d3)-1,2,4-oxadiazol-3-yl)-2,3-dihydrobenzofuran-3-yl)-2H-tetrazole-5-carboxamide]
14 | 2.1 | 4.91 | Cc1ccnc(-c2ccc3c(c2)CC[C@H]3NC(=O)c2ccnn2C)n1 [Compound 378, (R)-1-methyl-N-(5-(4-methylpyrimidin-2-yl)-2,3-dihydro-1H-inden-1-yl)-1H-pyrazole-5-carboxamide]
15 | 2.3 | 5.11 | Cn1nccc1C(=O)N[C@@H]1CCc2cc(C#CC3CC3)ccc21 [Compound 451, (R)-N-(5-(cyclopropylethynyl)-2,3-dihydro-1H-inden-1-yl)-1-methyl-1H-pyrazole-5-carboxamide]
16 | 0.9 | 5.47 | Cc1nc(-c2ccc3c(c2)CC[C@H]3NC(=O)c2cn[nH]c2)no1 [Compound 487, (R)-N-(5-(5-methyl-1,2,4-oxadiazol-3-yl)-2,3-dihydro-1H-inden-1-yl)-1H-pyrazole-4-carboxamide]

Row | CDMF75 IC15 [µM] | pIC50 | SMILES
17 | 0.4 | 5.72 | Cc1nn(C)cc1C(=O)N[C@@H]1CCc2cc(-c3noc(C(F)F)n3)ccc21 [Compound 90, (R)-N-(5-(5-(difluoromethyl)-1,2,4-oxadiazol-3-yl)-2,3-dihydro-1H-inden-1-yl)-1,3-dimethyl-1H-pyrazole-4-carboxamide]
18 | 0.3 | 6.00 | Cn1nnc(C(=O)N[C@@H]2CCc3cc(-c4noc(C5CCC5)n4)ccc32)n1 [Compound 143, (R)—N-(5-(5-cyclobutyl-1,2,4-oxadiazol-3-yl)-2,3-dihydro-1H-inden-1-yl)-2-methyl-2H-tetrazole-5-carboxamide]
19 | 0.3 | 6.10 | CCc1nc(-c2ccc3c(c2)CC[C@H]3NC(=O)c2ccnn2C)no1 [Compound 240, (R)-N-(5-(5-ethyl-1,2,4-oxadiazol-3-yl)-2,3-dihydro-1H-inden-1-yl)-1-methyl-1H-pyrazole-5-carboxamide]
20 | 1.3 | 5.23 | Cc1cnc(C(=O)N[C@@H]2CCc3cc(-c4noc(C(F)F)n4)ccc32)o1 [Compound 681, (R)-N-(5-(5-(difluoromethyl)-1,2,4-oxadiazol-3-yl)-2,3-dihydro-1H-inden-1-yl)-5-methyloxazole-2-carboxamide]
21 | 1.3 | 5.26 | Cn1nccc1C(=O)N[C@@H]1CCc2cc(-c3noc(C4CC4(C)C)n3)ccc21 (stereo partly drawn) [Compound 460, N-((1R)-5-(5-(2,2-dimethylcyclopropyl)-1,2,4-oxadiazol-3-yl)-2,3-dihydro-1H-inden-1-yl)-1-methyl-1H-pyrazole-5-carboxamide]
22 | 0.7 | 5.60 | Cc1nn(C)cc1C(=O)NC1CCc2cc(-c3noc(C4CC4)n3)ccc21 (centres unmarked) [Compound 73, N-(5-(5-cyclopropyl-1,2,4-oxadiazol-3-yl)-2,3-dihydro-1H-inden-1-yl)-1,3-dimethyl-1H-pyrazole-4-carboxamide]
23 | 1.4 | 5.27 | Cc1noc(-c2ccc3c(c2)CC[C@H]3NC(=O)c2cn(C)nc2C)n1 [Compound 201, (R)-1,3-dimethyl-N-(5-(3-methyl-1,2,4-oxadiazol-5-yl)-2,3-dihydro-1H-inden-1-yl)-1H-pyrazole-4-carboxamide]
24 | 0.5 | 5.82 | CCc1nc(-c2ccc3c(c2)CC[C@H]3NC(=O)c2ccnnc2)no1 [Compound 632, (R)-N-(5-(5-ethyl-1,2,4-oxadiazol-3-yl)-2,3-dihydro-1H-inden-1-yl)pyridazine-4-carboxamide]
25 | 0.7 | 5.57 | CC(C)COC(=O)N[C@@H]1CCc2cc(-c3noc(C(F)F)n3)ccc21 [Compound 280, isobutyl (R)-(5-(5-(difluoromethyl)-1,2,4-oxadiazol-3-yl)-2,3-dihydro-1H-inden-1-yl)carbamate]
26 | 17.3 | < 4.41 | O=C(N[C@@H]1CCc2cc(-c3noc(C(F)F)n3)ccc21)OC1CNC1 [Compound 291, azetidin-3-yl (R)-(5-(5-(difluoromethyl)-1,2,4-oxadiazol-3-yl)-2,3-dihydro-1H-inden-1-yl)carbamate]
27 | 0.7 | 5.62 | Cc1noc(-c2ccc3c(c2)OC[C@H]3NC(=O)c2ccnn2C)n1 [Compound 314, (S)-1-methyl-N-(6-(3-methyl-1,2,4-oxadiazol-5-yl)-2,3-dihydrobenzofuran-3-yl)-1H-pyrazole-5-carboxamide]
28 | 1.1 | 5.43 | Cn1nnc(C(=O)NC2CCc3cc(-c4noc(C(F)F)n4)ccc32)n1 (centres unmarked) [Compound 81, N-(5-(5-(difluoromethyl)-1,2,4-oxadiazol-3-yl)-2,3-dihydro-1H-inden-1-yl)-2-methyl-2H-tetrazole-5-carboxamide]
29 | 1.0 | 5.43 | [2H]C([2H])([2H])c1nc(-c2ccc3c(c2)CC[C@H]3NC(=O)c2cn[nH]c2)no1 [Compound 491, (R)-N-(5-(5-(methyl-d3)-1,2,4-oxadiazol-3-yl)-2,3-dihydro-1H-inden-1-yl)-1H-pyrazole-4-carboxamide]
30 | 22.3 | < 4.41 | CC(=O)OCc1nc(-c2ccc3c(c2)CCC3NC(=O)c2cn(C)nc2C)no1 (centres unmarked) [Compound 74, (3-(1-(1,3-dimethyl-1H-pyrazole-4-carboxamido)-2,3-dihydro-1H-inden-5-yl)-1,2,4-oxadiazol-5-yl)methyl acetate]
31 | 2.7 | 4.97 | O=C(N[C@@H]1CCc2cc(-c3noc(C4CCC4)n3)ccc21)C(F)F [Compound 440, (R)-N-(5-(5-cyclobutyl-1,2,4-oxadiazol-3-yl)-2,3-dihydro-1H-inden-1-yl)-2,2-difluoroacetamide]
